These results are taken from patent US7897776B2, “Sulfonamide containing compounds for treatment of inflammatory disorders” (Salutria Pharmaceuticals LLC, priority 2007, dated 2011).

Structures can show the parent of a compound that is named as a salt. Bounds are passed on as bounds.

As a reminder, the melting point is the temperature of the solid-liquid transition.

In data set [1] the test system is Methacholine-induced airway reactivity. The data set can be described thus: Mouse model of asthma: methacholine-induced airway reactivity (Penh) in ovalbumin-sensitized and challenged mice. Format: in vivo. The following applies: % inhibition of the PenH vs McH dose AUC compared with vehicle control; for inhibition in vivo at 50 mg/kg: Mus musculus, po, 768 h, 50 mg/kg p.o., dosed days 26-32, measured day 32, ovalbumin-sensitized male Balb/CJ mice, read-out: Reduction of Penh AUC at 50 mg/kg p.o. How it is done: Male 5-6 week old Balb/CJ mice were obtained from Jackson Laboratories (Bar Harbor, Me.). All experimental animals were used in accordance to Institutional Animal Care and Use Committee of AtheroGenics, Inc. Mice were sensitized by administering an intraperitoneal injection of 20 μg of ovalbumin (Calbiochem, La Jolla, Calif.) adsorbed in 2 mg of alum (Imject Alum; Pierce, Rockford, Ill.) on day 0 and 14. A group of mice received saline and served as negative control animals. The mice were challenged by aerosol exposure to ovalbumin (1% [wt/vol]) for 25 minutes on 3 consecutive days (days 28, 29, and 30) in a plexiglass exposure chamber coupled to an Aeroneb nebulizer (Buxco Electronics, Wilmington, N.C.). Experimental compounds were dissolved in Glycofurol/PEG 300/Tween (35%/55%/10%) (Sigma-Aldrich; Milwaukee, Wis.). Animals were dosed orally with either test compound or vehicle (6 ml/kg dosing volume) on days 26-32 of study. Compound or vehicle was administered 2 hour before the aerosol challenge on days 28, 29, and 30 and 1 hour before airway reactivity measurement on day 32.
Methacholine-induced airway reactivity was assessed on day 32. Methacholine was administered in increasing concentrations ([…], 1.5, 3, 6, 12, 25, and 50 mg/ml) to unrestrained mice. Increases in airway resistance to Methacholine were determined as enhanced pause, (Penh) values, during and after the exposure (6-minute total analysis time). Mice were then humanely euthanized with an overdose of ketamine/xylazine and plasma samples collected for determination of drug levels. The data is presented as the % inhibition of the PenH vs McH dose AUC compared with the vehicle control.
Data analysis was conducting using the software package, JMP (SAS Institute Inc; Cary, N.C.). The Dunnett's multiple comparison test was used to compare treatment group means to the vehicle control group. P values of less than 0.05 were considered statistically significant. The data (Table 1) is presented as the % inhibition of the PenH vs McH dose AUC compared with the vehicle control.

In the case of `CC(C)(C)c1cc(SC2CCN(S(=O)(=O)c3ncc(C(C)(C)O)[nH]3)CC2)cc(C(C)(C)C)c1O` [Example 12, 2,6-Di-tert-butyl-4-{1-[5-(1-hydroxy-1-methyl-ethyl)-1H-imidazole-2-sulfonyl]-piperidin-4-ylsulfanyl}-phenol], the inhibition in vivo at 50 mg/kg in data set [1] was < 20%.
For `Cn1c(CO)ccc1S(=O)(=O)N1CCC(Sc2cc(C(C)(C)C)c(O)c(C(C)(C)C)c2)CC1` [Example 5, 2,6-Di-tert-butyl-4-[1-(5-hydroxymethyl-1-methyl-1H-pyrrole-2-sulfonyl)-piperidin-4-ylsulfanyl]-phenol], the melting point was in the range of 64 to 65 °C. Moreover, the inhibition in vivo at 50 mg/kg in data set [1] was > 40%.
`Cn1c(C(=O)O)ccc1S(=O)(=O)N1CCC(CCO)(Sc2cc(C(C)(C)C)c(O)c(C(C)(C)C)c2)CC1` [Example 1, 5-[4-(3,5-Di-tert-butyl-4-hydroxy-phenylsulfanyl)-4-(2-hydroxy-ethyl)-piperidine-1-sulfonyl]-1-methyl-1H-pyrrole-2-carboxylic acid]: the inhibition in vivo at 50 mg/kg in data set [1] was < 20%.
As for `Cn1c(C(=O)O)ccc1S(=O)(=O)N1CCC(Sc2cc(C(C)(C)C)c(OCCCO)c(C(C)(C)C)c2)CC1` [Example 6, 5-{4-[3,5-Di-tert-butyl-4-(3-hydroxy-propoxy)-phenylsulfanyl]-piperidine-1-sulfonyl}-1-methyl-1H-pyrrole-2-carboxylic acid], in data set [1], the inhibition in vivo at 50 mg/kg was < 20%.
Turning to `Cn1c(C(=O)O)ccc1S(=O)(=O)N1CCC(Sc2cc(C(C)(C)C)c(O)c(C(C)(C)C)c2)CC1` [Example 16, 5-[4-(3,5-Di-tert-butyl-4-hydroxy-phenylsulfanyl)-piperidine-1-sulfonyl]-1-methyl-1H-pyrrole-2-carboxylic acid L-arginine salt], the inhibition in vivo at 50 mg/kg in data set [1] was < 20%.
Take `Cn1c(C(=O)O)ccc1S(=O)(=O)N1CC[C@H](Sc2cc(C(C)(C)C)c(O)c(C(C)(C)C)c2)C1` [Example 14, (S)-5-[3-(3,5-Di-tert-butyl-4-hydroxy-phenylsulfanyl)-pyrrolidine-1-sulfonyl]-1-methyl-1H-pyrrole-2-carboxylic acid]: the inhibition in vivo at 50 mg/kg in data set [1] is < 20%.
Regarding `CC(C)(C)c1cc(SC2CCN(S(=O)(=O)c3ncc(C(=O)O)[nH]3)CC2)cc(C(C)(C)C)c1O` [Example 8, 2-[4-(3,5-Di-tert-butyl-4-hydroxy-phenylsulfanyl)-piperidine-1-sulfonyl]-3H-imidazole-4-carboxylic acid], the inhibition in vivo at 50 mg/kg in data set [1] was in the range of 20 to 40%.
Regarding `Cn1c(CO)ccc1S(=O)(=O)N1CCC(CCO)(Sc2cc(C(C)(C)C)c(O)c(C(C)(C)C)c2)CC1` [Example 2, 2,6-Di-tert-butyl-4-[4-(2-hydroxy-ethyl)-1-(5-hydroxymethyl-1-methyl-1H-pyrrole-2-sulfonyl)-piperidin-4-ylsulfanyl]-phenol], the melting point was in the range of 126 to 127 °C. In addition, the inhibition in vivo at 50 mg/kg in data set [1] was > 40%.
In the case of `Cn1c(C(=O)O)ccc1S(=O)(=O)N1CCC(Sc2cc(C(C)(C)C)c(O)c(C(C)(C)C)c2)CC1` [Example 18, 5-[4-(3,5-Di-tert-butyl-4-hydroxy-phenylsulfanyl)-piperidine-1-sulfonyl]-1-methyl-1H-pyrrole-2-carboxylic acid tris(hydroxymethyl)aminomethane (THAM) Salt], the “Reduction of Penh AUC at 50 mg/kg p.o.” value in data set [1] (dosed days 26-32, measured day 32, ovalbumin-sensitized male Balb/CJ mice, 50 mg/kg) is 1 (>40% and statistically significant).
Turning to `Cn1c(C(=O)O)ccc1S(=O)(=O)N1CCC([S+]([O-])c2cc(C(C)(C)C)c(O)c(C(C)(C)C)c2)CC1` (stereo not shown) [Example 7, 5-[4-(3,5-Di-tert-butyl-4-hydroxy-benzenesulfinyl)-piperidine-1-sulfonyl]-1-methyl-1H-pyrrole-2-carboxylic acid], the inhibition in vivo at 50 mg/kg in data set [1] lay within 20 to 40%.
With `Cn1c(CO)ccc1S(=O)(=O)N1CC[C@H](Sc2cc(C(C)(C)C)c(O)c(C(C)(C)C)c2)C1` [Example 15, (S)-2,6-Di-tert-butyl-4-[1-(5-hydroxymethyl-1-methyl-1H-pyrrole-2-sulfonyl)-pyrrolidin-3-ylsulfanyl]-phenol], the melting point fell in the range of 68 to 70 °C. In data set [1], the inhibition in vivo at 50 mg/kg is < 20%.
With `Cn1c(C(=O)O)ccc1S(=O)(=O)N1CCC(Sc2cc(C(C)(C)C)c(O)c(C(C)(C)C)c2)CC1` [Example 4, 5-[4-(3,5-Di-tert-butyl-4-hydroxy-phenylsulfanyl)-piperidine-1-sulfonyl]-1-methyl-1H-pyrrole-2-carboxylic acid], the inhibition in vivo at 50 mg/kg in data set [1] is > 40%.
Same read-out and setting: with `Cc1[nH]c(C(=O)O)c(C)c1S(=O)(=O)N1CCC(Sc2cc(C(C)(C)C)c(O)c(C(C)(C)C)c2)CC1` [Example 3, 4-[4-(3,5-Di-tert-butyl-4-hydroxy-phenylsulfanyl)-piperidine-1-sulfonyl]-3,5-dimethyl-1H-pyrrole-2-carboxylic acid] the figure was 20 to 40%; with `Cn1c(C(=O)O)ccc1S(=O)(=O)N1CC[C@@H](Sc2cc(C(C)(C)C)c(O)c(C(C)(C)C)c2)C1` [Example 13, (R)-5-[3-(3,5-Di-tert-butyl-4-hydroxy-phenylsulfanyl)-pyrrolidine-1-sulfonyl]-1-methyl-1H-pyrrole-2-carboxylic acid], < 20%.
Molecule `CC(C)(C)c1cc(SC2CCN(S(=O)(=O)c3ncc(CO)[nH]3)CC2)cc(C(C)(C)C)c1O` [Example 9, 2,6-Di-tert-butyl-4-[1-(5-hydroxymethyl-1H-imidazole-2-sulfonyl)-piperidin-4-ylsulfanyl]-phenol] returned a melting point of 122 to 123 °C. Moreover, in data set [1], the inhibition in vivo at 50 mg/kg lay within 20 to 40%.
